# From patent publication US10988600B2, “Cyclodextrin-grafted cross-linked hyaluronic acid complexed with active drug substances and uses thereof” (GALDERMA S.A., priority 2016, dated 2021)
# Assay: Solubility study of adapalene with randomly methylated β-cyclodextrins
# Assay type: physicochemical
# Protocol: A solubility study was performed by adding excess amounts of adapalene (5 mg) to six glass vials containing 10 mL aqueous solutions of increasing concentrations of randomly methylated β-cyclodextrins (0-7×10^−3 M) dissolved in 154 mM NaCl and 10 mM Na-phosphate (pH 7). The samples were mixed at room temperature for six days, and then they were centrifuged at 4000 rpm for 3 minutes. The supernatants were filtered through a 0.2 μm filter in order to remove undissolved adapalene. The UV absorbance of the filtrates was then measured at 320 nm in order to determine the concentration of dissolved adapalene. The concentration of adapalene in each sample was calculated from a calibration curve.
# For sample 1, from the solubility diagram study in Example 16 containing 0.7 mM randomly methylated β-cyclodextrin and an excess of adapalene, 550 μl of the filtered sample, was added to a 2 ml Eppendorf tube. The sample was then lyophilized and the solvent exchanged to D2O.
# Sample 2 containing 1.5 mM randomly methylated β-cyclodextrin and 0.15 mM of adapalene dissolved in D2O and 1% DMSO-d6 was prepared by adding 550 μl of the sample to a 2 ml Eppendorf tube. The sample was then lyophilized and the solvent exchanged again to D2O.
smiles,measurement,setting,value
"COc1ccc(-c2ccc3cc(C(=O)O)ccc3c2)cc1C12CC3CC(CC(C3)C1)C2 [adapalene, 6-[3-(1-adamantyl)-4-methoxy-phenyl] naphthalene-2-carboxylic acid]",Solubility of adapalene,"randomly methylated β-cyclodextrins 0-7×10^−3 M, 154 mM NaCl, 10 mM Na-phosphate pH 7, room temperature, six days (FIG. 3)",increases with increasing CD concentration
same,Complexed adapalene,"sample 1: 0.7 mM randomly methylated β-cyclodextrin, excess adapalene, filtered, according to solubility diagram data",about 0.075 mM
same,Complexed adapalene,sample 2: 1.5 mM randomly methylated β-cyclodextrin and 0.15 mM adapalene in D2O and 1% DMSO-d6,about 0.15 mM
